US20150094321A1, “COMBINATION” (GlaxoSmithKline LLC, priority 2009, published 2015)

Columns and labels:
Assay in all cases: Cell line proliferation study
Assay type in all cases: cell-based, human
[1] = system: YAPC; conditions: pancreas; for IC50: Homo sapiens, 72 hours, read-out: gIC50
Description: (§1) In a separate study, combination drug tests with Compounds A and B were conducted using a panel of cell lines from human colon cancers (n=26), lung cancers (n=15) and pancreatic cancers (n=6). Cell lines were obtained from commercial vendors (ATCC and DSMZ). Cell lines were grown in RPMI-1640 supplemented with 2 mM glutamine, 1 mM sodium pyruvate and 10% fetal bovine serum (except for Capan-1 and HuP-T4 which were grown with 20% fetal bovine serum) and maintained at 37° C. and 5% CO2 in a humid incubator. Assays were performed in 384 well microtiter plates with optimum seeding densities for each cell line.
(§2) The test compounds were prepared as 10 mM stocks in 100% DMSO. Further dilutions of the compounds were made in DMSO. Compound A was diluted horizontally in a separate 96 well microtiter plate in rows D-G using a 3-fold dilution series for 10 dilution points. Compound B was similarly diluted horizontally in a 96 well microtiter plate in rows B-E using a 3-fold dilution series for 10 dilution points.
(§3) The two compounds were combined using equal volumes from each drug plate into cell culture media. […] Both Compound A and Compound B were individually titrated in rows B and C (for Compound B) and rows F and G (for Compound A) of the merged drug plate.
(§4) A 1:10 dilution of the drugs was performed in cell culture media prior to addition to the cells.
(§5) The final concentration range for the test compounds was 250 to 0.013 nM for Compound A and 1000 to […] for Compound B. The positive control consisted of culture media with DMSO at 0.1% and cells. The negative control consisted of culture media with DMSO at 0.1%. The cell lines were incubated at 37° C., 5% CO2 in humid air for 72 hours. Cell proliferation was measured using the CellTiter Glo (Promega) reagent according to the manufacturer's protocol. The plates are treated with CellTiter Glo solution and are analyzed for RLU (relative light units) using a Molecular Devices SpectraMax M5 plate reader.
(§6) The percent intensity values were used in model 205 of XLfit (IDBS, Inc.) in Microsoft Excel to calculate gIC50 values using a 4 parameter logistical fit. The midpoint of the growth window (the gIC50) falls half way between the number of cells at the time of compound addition (T=0) and the growth of control cells treated with DMSO at 72 hrs. The number of cells at time zero (T0) is divided from the intensity value at the bottom of the response curve (Ymin) to generate a measure for cell death (Ymin/T0). A value below 1 for Ymin/T0 indicates stronger potency to induce cell death with the treatment when compared to higher values.
(§7) 1. Excess over Highest Single Agent (EOHSA)—This was calculated as described above (Borisy et al, 2003; FDA 21 CFR 300.50) 2. Bliss synergy—A second criterion often used to determine combination synergy is evaluating the excess inhibition over Bliss independence or “additivity” (Bliss and Mexico, 1939). The model assumes a combined response of the two compounds independently using the following:
(§8) Where Ea is the effect (or percent inhibition) of Compound A and Eb is the effect of Compound B. The resulting effect of the combination of the two compounds is compared to their predicted additivity by Bliss and a synergy score is generated for each dose along the response curve. 3. Combination Index (CI)—A third criterion traditionally used for the evaluation of synergy is Combination Index (CI) derived from the Chou and Talalay (1984). The following equation is a model used for compounds that behave with different mechanisms of action (mutually non-exclusive formula). This was calculated as described above.
(§9) For EOHSA and Bliss Synergy measures, a score is generated for each dose along the response curve. These scores reflect the percentage over the highest agent (EOHSA) or percentage greater than Bliss additivity, depending on which metric is being interpreted. […]

[2] = system: SW900; conditions: SW900, lung; for IC50: Homo sapiens, 72 hours, read-out: gIC50
Description: as §1, §2, §3, §4, §5, §6, §7, §8, §9

[3] = system: SW620; conditions: SW620, colon; for IC50: Homo sapiens, SW-620, 72 hours, read-out: gIC50
Description: as §1, §2, §3, §4, §5, §6, §7, §8, §9

[4] = system: LS174T; conditions: colon; for IC50: Homo sapiens, 72 hours, read-out: gIC50
Description: as §1, §2, §3, §4, §5, §6, §7, §8, §9

[5] = system: SW837; conditions: SW837, colon; for IC50: Homo sapiens, 72 hours, read-out: gIC50
Description: as §1, §2, §3, §4, §5, §6, §7, §8, §9

[6] = system: KM12; conditions: KM12, colon; for IC50: Homo sapiens, 72 hours, read-out: gIC50
Description: as §1, §2, §3, §4, §5, §6, §7, §8, §9

[7] = system: MiaPaCa; conditions: for IC50: Homo sapiens, MIA PaCa-2, pancreas, 72 hours, read-out: gIC50; for Ymin/T0: pancreas
Description: as §1, §2, §3, §4, §5, §6, §7, §8, §9

[8] = system: NCIH2030; conditions: NCIH2030, lung; for IC50: Homo sapiens, NCI-H2030, 72 hours, read-out: gIC50
Description: as §1, §2, §3, §4, §5, §6, §7, §8, §9

[9] = system: HCT8; conditions: HCT8, colon; for IC50: Homo sapiens, HCT-8, 72 hours, read-out: gIC50
Description: as §1, §2, §3, §4, §5, §6, §7, §8, §9

[10] = system: HT29; conditions: HT29, colon; for IC50: Homo sapiens, HT-29, 72 hours, read-out: gIC50
Description: as §1, §2, §3, §4, §5, §6, §7, §8, §9

[11] = system: SW1990; conditions: SW1990, pancreas; for IC50: Homo sapiens, 72 hours, read-out: gIC50
Description: as §1, §2, §3, §4, §5, §6, §7, §8, §9

[12] = system: WiDr; conditions: colon; for IC50: Homo sapiens, 72 hours, read-out: gIC50
Description: as §1, §2, §3, §4, §5, §6, §7, §8, §9

[13] = system: SW948; conditions: SW948, colon; for IC50: Homo sapiens, 72 hours, read-out: gIC50
Description: as §1, §2, §3, §4, §5, §6, §7, §8, §9

[14] = system: NCIH1563; conditions: NCIH1563, lung; for IC50: Homo sapiens, NCI-H1563, 72 hours, read-out: gIC50
Description: as §1, §2, §3, §4, §5, §6, §7, §8, §9

[15] = system: SW403; conditions: SW403, colon; for IC50: Homo sapiens, SW-403, 72 hours, read-out: gIC50
Description: as §1, §2, §3, §4, §5, §6, §7, §8, §9

Row | SMILES | IC50 [1] | Ymin/T0 [1] | IC50 [2] | Ymin/T0 [2] | IC50 [3] | Ymin/T0 [3] | IC50 [4] | Ymin/T0 [4] | IC50 [5] | Ymin/T0 [5] | IC50 [6] | Ymin/T0 [6] | IC50 [7] | Ymin/T0 [7] | IC50 [8] | Ymin/T0 [8] | Ymin/T0 [9] | IC50 [9] | Ymin/T0 [10] | IC50 [10] | further results
1 | CC(=O)Nc1cccc(-n2c(=O)n(C3CC3)c(=O)c3c(Nc4ccc(I)cc4F)n(C)c(=O)c(C)c32)c1 [Compound A, N-{3-[3-cyclopropyl-5-(2-fluoro-4-iodo-phenylamino)-6,8-dimethyl-2,4,7-trioxo-3,4,6,7-tetrahydro-2H-pyrido[4,3-d]pyrimidin-1-yl]phenyl}acetamide] | > 250 nM | 59.4 | 15 nM | −5.9 | 15.2 nM | 15.46 | 81.4 nM | 18.26 | 153 nM | 25.58 | 28.7 nM | 19.1 | 23.5 nM | 25.0 | > 250 nM | 55.8 | 16.70 | 18.3 nM | 11.99 | 3.6 nM | IC50 [11]: 94 nM; Ymin/T0 [11]: 17.1; IC50 [12]: 1.85 nM; Ymin/T0 [12]: 3.94; IC50 [13]: 185 nM; Ymin/T0 [13]: 27.87; IC50 [14]: > 250 nM; Ymin/T0 [14]: 26.6; IC50 [15]: 4.6 nM; Ymin/T0 [15]: 3.02
2 | Cn1ncc(Cl)c1-c1cc(C(=O)N[C@H](CN)Cc2ccc(F)c(F)c2)oc1Cl [Compound B, N-{(1S)-2-amino-1-[(3,4-difluorophenyl)methyl]ethyl}-5-chloro-4-(4-chloro-1-methyl-1H-pyrazol-5-yl)-2-furancarboxamide] | > 1000 nM | 55.2 | > 1000 nM | 47.3 | > 1000 nM | 76.65 | > 1000 nM | 19.70 | > 1000 nM | 63.88 | 928 nM | 13.9 | > 1000 nM | 0.7 | > 1000 nM | 40.7 | 20.44 | 758 nM | 11.64 | 780 nM | IC50 [11]: > 1000 nM; Ymin/T0 [11]: 36.8; IC50 [12]: 700 nM; Ymin/T0 [12]: 5.24; IC50 [13]: 609 nM; Ymin/T0 [13]: 20.46; IC50 [14]: 65 nM; Ymin/T0 [14]: 27.6; IC50 [15]: 74.3 nM; Ymin/T0 [15]: 8.82
